Results taken from patent US8546381B2, “Bridged heterocyclic compounds and methods of use” (Medivation Technologies, Inc., priority 2008, dated 2013).

Key:
[1] = target: T1, human recombinant histamine H1 receptor (Homo sapiens, UniProt P35367); assay: Histamine H1 radioligand binding ([3H]Pyrilamine); settings: compound at 1 μM; inhibition of specific [3H]Pyrilamine binding; read-out: Histamine Binding (1 μM) H1, Percentage Inhibition
T1 construct: expressed in transfected cells; host or cells: CHO cells
T1 sequence (P35367 whole entry): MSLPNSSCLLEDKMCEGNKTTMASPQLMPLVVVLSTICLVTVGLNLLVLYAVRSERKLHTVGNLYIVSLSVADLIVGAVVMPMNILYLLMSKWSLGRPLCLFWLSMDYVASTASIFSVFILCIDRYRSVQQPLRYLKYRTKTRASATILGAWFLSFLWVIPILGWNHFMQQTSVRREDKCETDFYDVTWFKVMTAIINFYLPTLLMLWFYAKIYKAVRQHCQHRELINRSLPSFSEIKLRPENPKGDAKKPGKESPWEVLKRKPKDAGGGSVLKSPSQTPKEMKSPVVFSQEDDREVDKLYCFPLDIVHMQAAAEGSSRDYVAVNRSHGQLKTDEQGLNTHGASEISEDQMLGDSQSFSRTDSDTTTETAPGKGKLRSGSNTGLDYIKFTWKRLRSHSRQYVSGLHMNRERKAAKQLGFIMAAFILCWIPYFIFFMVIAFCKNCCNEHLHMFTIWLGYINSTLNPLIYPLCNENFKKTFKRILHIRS
Experimental: To evaluate in radioligand binding assays the activity of compounds of the invention, human recombinant histamine H1 receptor expressed in Chinese hamster ovary (CHO) cells (De Backer, M. D. et al., Biochem. Biophys. Res. Comm. 197(3):1601, 1993) in a modified Tris-HCl buffer (50 mM Tris-HCl, pH 7.4, 2 mM MgCl2, 100 mM NaCl, 250 mM Sucrose) was used. Compounds of the invention were incubated with 1.2 nM [^3H]Pyrilamine for 180 minutes at 25° C. Non-specific binding was estimated in the presence of 1 μM pyrilamine. Receptor proteins were filtered and washed, the filters were then counted to determine [^3H]Pyrilamine specifically bound. Compounds were screened at 1 μM or lower, using 1% DMSO as vehicle. Biochemical assay results are presented as the percent inhibition of specific binding in Table 2.

[2] = target: T2, human recombinant histamine H2 receptor (Homo sapiens, UniProt P25021); assay: Histamine H2 radioligand binding ([125I]Aminopotentidine); settings: compound at 1 μM; inhibition of specific [125I]Aminopotentidine binding; read-out: Histamine Binding (1 μM) H2, Percentage Inhibition
T2 construct: expressed in transfected cells; host or cells: CHO-K1 cells
T2 sequence (P25021 whole entry): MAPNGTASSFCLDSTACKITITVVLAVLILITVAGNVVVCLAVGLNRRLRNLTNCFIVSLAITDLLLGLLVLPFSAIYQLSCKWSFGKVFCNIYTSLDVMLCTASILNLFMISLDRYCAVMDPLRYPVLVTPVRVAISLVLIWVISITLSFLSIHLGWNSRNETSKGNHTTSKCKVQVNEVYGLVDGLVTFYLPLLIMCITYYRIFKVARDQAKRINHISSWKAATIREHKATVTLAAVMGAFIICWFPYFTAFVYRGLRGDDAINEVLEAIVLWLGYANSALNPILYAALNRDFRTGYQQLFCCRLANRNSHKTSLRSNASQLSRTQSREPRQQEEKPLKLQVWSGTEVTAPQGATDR
Experimental: To evaluate in radioligand binding assays the activity of compounds of the invention, human recombinant histamine H2 receptor expressed in Chinese hamster ovary (CHO) K1 cells (Ruat, M., Proc. Natl. Acad. Sci. USA. 87(5):1658, 1990) in a 50 mM Phosphate buffer, pH 7.4 was used. Compounds of the invention were incubated with 0.1 nM [^125I]Aminopotentidine for 120 minutes at 25° C. Non-specific binding was estimated in the presence of 3 μM Tiotidine. Receptor proteins were filtered and washed, the filters were then counted to determine [^125I]Aminopotentidine specifically bound. Compounds were screened at 1 μM or lower, using 1% DMSO as vehicle. Biochemical assay results are presented as the percent inhibition of specific binding in Table 2.

[3] = target: T3, human recombinant dopamine D2L receptor (Homo sapiens, UniProt P14416); assay: Dopamine D2L radioligand binding ([3H]Spiperone); settings: read-out: Dopamine (1 μM) D2L, inhibition of ligand binding
T3 construct: expressed in transfected cells; host or cells: CHO cells
T3 sequence (P14416 whole entry): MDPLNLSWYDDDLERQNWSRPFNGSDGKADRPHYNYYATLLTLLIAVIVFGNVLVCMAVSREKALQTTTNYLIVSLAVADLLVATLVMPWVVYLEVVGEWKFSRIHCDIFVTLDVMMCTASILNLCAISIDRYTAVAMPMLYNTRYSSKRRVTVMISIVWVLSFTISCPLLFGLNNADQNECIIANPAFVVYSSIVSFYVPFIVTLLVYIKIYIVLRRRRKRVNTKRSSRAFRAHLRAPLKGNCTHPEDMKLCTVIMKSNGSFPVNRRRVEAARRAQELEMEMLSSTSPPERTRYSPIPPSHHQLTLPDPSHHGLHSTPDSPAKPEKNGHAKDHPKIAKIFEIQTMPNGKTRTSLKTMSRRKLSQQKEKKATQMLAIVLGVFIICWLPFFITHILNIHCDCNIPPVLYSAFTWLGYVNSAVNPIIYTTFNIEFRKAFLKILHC
Experimental: To evaluate in radioligand binding assays the activity of compounds of the invention, human recombinant dopamine D2L receptor expressed in Chinese hamster ovary (CHO) cells (Grandy, D. K. et al. Proc. Natl. Acad. Sci. USA. 86:9762, 1989; Hayes, G. et al., Mol. Endocrinol. 6:920, 1992) in a modified Tris-HCl buffer (50 mM Tris-HCl, pH 7.4, 1.4 mM Ascorbic Acid, 0.001% BSA, 150 mM NaCl) was used. Compounds of the invention were incubated with 0.16 nM [^3H]Spiperone for 120 minutes at 25° C. Non-specific binding was estimated in the presence of 10 μM Haloperidol. Receptor proteins were filtered and washed, the filters were then counted to determine [^3H]Spiperone specifically bound. Compounds were screened at 1 μM or lower, using 1% DMSO as vehicle. Biochemical assay results are presented as the percent inhibition of specific binding in Table 3.

[4] = target: T4, human recombinant serotonin (5-Hydroxytryptamine) 5-HT2A receptor (Homo sapiens, UniProt P28223); assay: Serotonin 5-HT2A radioligand binding ([3H]Ketanserin); settings: read-out: Serotonin 5-HT2A, inhibition of ligand binding (1 μM)
T4 construct: expressed in transfected cells; host or cells: CHO-K1 cells
T4 sequence (P28223 whole entry): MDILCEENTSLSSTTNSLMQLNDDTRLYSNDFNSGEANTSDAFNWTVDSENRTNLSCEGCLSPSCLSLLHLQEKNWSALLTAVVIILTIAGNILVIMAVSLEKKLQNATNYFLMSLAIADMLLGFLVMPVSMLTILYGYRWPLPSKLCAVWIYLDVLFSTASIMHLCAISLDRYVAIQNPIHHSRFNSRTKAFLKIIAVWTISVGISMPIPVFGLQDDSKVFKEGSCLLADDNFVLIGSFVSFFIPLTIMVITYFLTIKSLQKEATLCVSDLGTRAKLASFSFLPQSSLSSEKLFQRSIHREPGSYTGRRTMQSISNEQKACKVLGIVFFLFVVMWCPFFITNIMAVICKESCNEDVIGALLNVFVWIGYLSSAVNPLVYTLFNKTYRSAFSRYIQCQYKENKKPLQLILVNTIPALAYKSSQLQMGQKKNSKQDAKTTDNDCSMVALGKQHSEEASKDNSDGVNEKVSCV
Experimental: To evaluate in radioligand binding assays the activity of compounds of the invention, human recombinant serotonin (5-Hydroxytryptamine) 5-HT2A receptor expressed in Chinese hamster ovary (CHO-K1) cells (Bonhaus, D. W. et al. Br. J. Pharmacol. 115:622, 1995; Saucier, C. and Albert, P. R., J. Neurochem. 68:1998, 1997) in a 50 mM Tris-HCl buffer, pH 7.4, was used. Compounds of the invention were incubated with 0.5 nM [^3H]Ketanserin for 60 minutes at 25° C. Non-specific binding was estimated in the presence of 1 μM Mianserin. Receptor proteins were filtered and washed, the filters were then counted to determine [^3H]Ketanserin specifically bound. Compounds were screened at 1 μM or lower, using 1% DMSO as vehicle. Biochemical assay results are presented as the percent inhibition of specific binding in Table 4.

[5] = target: T5, human recombinant serotonin (5-Hydroxytryptamine) 5-HT2C receptor (Homo sapiens, UniProt P28335); assay: Serotonin 5-HT2C radioligand binding ([3H]Mesulergine); settings: read-out: Serotonin 5-HT2C, inhibition of ligand binding (1 μM)
T5 construct: expressed in transfected cells; host or cells: CHO-K1 cells
T5 sequence (P28335 33-458): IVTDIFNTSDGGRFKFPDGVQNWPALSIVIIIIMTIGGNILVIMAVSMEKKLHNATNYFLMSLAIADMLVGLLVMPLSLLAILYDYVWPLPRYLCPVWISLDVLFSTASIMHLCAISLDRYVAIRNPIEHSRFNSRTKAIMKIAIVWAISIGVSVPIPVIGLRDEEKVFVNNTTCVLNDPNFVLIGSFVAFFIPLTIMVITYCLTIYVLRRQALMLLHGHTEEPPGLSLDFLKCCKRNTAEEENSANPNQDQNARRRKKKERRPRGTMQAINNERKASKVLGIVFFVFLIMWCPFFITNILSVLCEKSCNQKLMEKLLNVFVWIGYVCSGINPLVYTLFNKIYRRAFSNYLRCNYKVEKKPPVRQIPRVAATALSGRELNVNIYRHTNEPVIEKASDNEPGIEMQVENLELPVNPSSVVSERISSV
Experimental: To evaluate in radioligand binding assays the activity of compounds of the invention, human recombinant serotonin (5-Hydroxytryptamine) 5-HT2C receptor expressed in Chinese hamster ovary (CHO-K1) cells (Wolf, W. A. and Schutz, J. S., J. Neurochem. 69:1449, 1997) in a modified Tris-HCl buffer (50 mM Tris-HCl, pH 7.4, 0.1% Ascorbic Acid, 10 μM Pargyline) was used. Compounds of the invention were incubated with 1 nM [^3H]Mesulergine for 60 minutes at 25° C. Non-specific binding was estimated in the presence of 1 μM Mianserin. Receptor proteins were filtered and washed, the filters were then counted to determine [^3H]Mesulergine specifically bound. Compounds were screened at 1 μM or lower, using 1% DMSO as vehicle. Biochemical assay results are presented as the percent inhibition of specific binding in Table 4.

[6] = target: T6, human recombinant serotonin (5-Hydroxytryptamine) 5-HT6 receptor (Homo sapiens, UniProt P50406); assay: Serotonin 5-HT6 radioligand binding ([3H]LSD); settings: read-out: Serotonin 5-HT6, inhibition of ligand binding (1 μM)
T6 construct: expressed in transfected cells; host or cells: human HeLa cells
T6 sequence (P50406 whole entry): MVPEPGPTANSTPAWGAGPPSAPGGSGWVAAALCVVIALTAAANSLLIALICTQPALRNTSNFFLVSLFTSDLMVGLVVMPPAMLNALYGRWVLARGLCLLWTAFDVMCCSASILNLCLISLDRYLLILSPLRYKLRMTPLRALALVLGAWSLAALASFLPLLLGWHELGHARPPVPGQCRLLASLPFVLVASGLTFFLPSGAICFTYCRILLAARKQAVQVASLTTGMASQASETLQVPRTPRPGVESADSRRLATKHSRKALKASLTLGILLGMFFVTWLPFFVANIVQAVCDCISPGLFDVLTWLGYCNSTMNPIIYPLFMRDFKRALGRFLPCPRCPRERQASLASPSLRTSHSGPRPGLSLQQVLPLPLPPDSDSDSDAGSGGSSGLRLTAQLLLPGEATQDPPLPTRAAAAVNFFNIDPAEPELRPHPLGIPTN
Experimental: To evaluate in radioligand binding assays the activity of compounds of the invention, human recombinant serotonin (5-Hydroxytryptamine) 5-HT6 receptor expressed in human HeLa cells (Monsma, F. J. Jr. et al., Mol. Pharmacol. 43:320, 1993) in a modified Tris-HCl buffer (50 mM Tris-HCl, pH 7.4, 150 mM NaCl, 2 mM Ascorbic Acid, 0.001% BSA) was used. Compounds of the invention were incubated with 1.5 nM [3H]Lysergic acid diethylamide (LSD) for 120 minutes at 37° C. Non-specific binding was estimated in the presence of 5 μM Serotonin (5-HT). Receptor proteins were filtered and washed, the filters were then counted to determine [3H]LSD specifically bound. Compounds were screened at 1 μM or lower, using 1% DMSO as vehicle. Biochemical assay results are presented as the percent inhibition of specific binding in Table 4.

[7] = target: T7, human recombinant serotonin (5-Hydroxytryptamine) 5-HT7 receptor (Homo sapiens, UniProt P34969); assay: Serotonin 5-HT7 radioligand binding ([3H]LSD); settings: read-out: Serotonin 5-HT7, inhibition of ligand binding (1 μM)
T7 construct: expressed in transfected cells; host or cells: CHO cells
T7 sequence (P34969 whole entry): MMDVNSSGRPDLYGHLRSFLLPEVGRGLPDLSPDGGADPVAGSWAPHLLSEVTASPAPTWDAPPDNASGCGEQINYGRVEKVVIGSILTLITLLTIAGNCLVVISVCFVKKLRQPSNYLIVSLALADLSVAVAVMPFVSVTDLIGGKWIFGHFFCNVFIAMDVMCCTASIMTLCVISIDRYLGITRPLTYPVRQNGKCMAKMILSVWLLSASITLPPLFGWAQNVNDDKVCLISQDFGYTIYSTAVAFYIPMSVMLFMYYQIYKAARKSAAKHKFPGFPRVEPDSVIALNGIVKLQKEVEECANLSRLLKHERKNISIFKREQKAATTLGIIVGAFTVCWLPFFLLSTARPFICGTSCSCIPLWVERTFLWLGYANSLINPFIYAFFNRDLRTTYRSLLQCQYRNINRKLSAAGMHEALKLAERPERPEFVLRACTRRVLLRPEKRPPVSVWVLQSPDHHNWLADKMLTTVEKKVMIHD
Experimental: To evaluate in radioligand binding assays the activity of compounds of the invention, human recombinant serotonin (5-Hydroxytryptamine) 5-HT7 receptor expressed in Chinese hamster ovary (CHO) cells (Roth, B. L. et al., J. Pharmacol. Exp. Ther. 268:1403, 1994; Shen, Y. et al., J. Biol. Chem. 268:18200, 1993) in a modified Tris-HCl buffer (50 mM Tris-HCl, pH 7.4, 10 mM MgCl2, 0.5 mM EDTA) was used. Compounds of invention were incubated with 5.5 nM [^3H] Lysergic acid diethylamide (LSD) for 2 hours at 25° C. Non-specific binding was estimated in the presence of 10 μM Serotonin (5-HT). Receptor proteins were filtered and washed, the filters were then counted to determine [^3H]LSD specifically bound. Compounds were screened at 1 μM or lower, using 1% DMSO as vehicle. Biochemical assay results are presented as the percent inhibition of specific binding in Table 4.

Structure (SMILES)	inhibition at 1 µM [1] [%]	inhibition at 1 µM [2] [%]	inhibition at 1 µM [3] [%]	inhibition at 1 µM [4] [%]	inhibition at 1 µM [5] [%]	inhibition at 1 µM [6] [%]	inhibition at 1 µM [7] [%]
C/C(=C\n1c2c(c3cc(Cl)ccc31)C1CCC(C2)N1C)c1cccnc1 (centres unmarked) [Compound 128]	15	21	21	91	77	62	66
C/C(=C\n1c2c(c3cc(C)ccc31)C1CCC(C2)N1C)c1cccnc1 (centres unmarked) [Compound 129]	5	26	8	88	72	19	80
C/C(=C\n1c2c(c3cc(Cl)ccc31)C1CCC(C2)N1C)c1ccc(Cl)c(Cl)c1 (centres unmarked) [Compound 132]	87	99	–	100	95	31	81
COc1ccc(C#Cn2c3c(c4cc(Cl)ccc42)C2CCC(C3)N2C)cc1F (centres unmarked) [Compound 154]	30	87	13	96	97	31	21
COc1ccc(C#Cn2c3c(c4cc(C)ccc42)C2CCC(C3)N2C)cc1F (centres unmarked) [Compound 155]	10	84	10	100	99	49	24
C/C(=C\n1c2c(c3cc(C)ccc31)C1CCC(C2)N1C)c1ccccc1F (centres unmarked) [Compound 164]	65	41	12	94	93	57	96
